Source: ChEMBL document CHEMBL1146540, “Bioactive constituents from three Vismia species” (2003)
Converted amounts (≈) assume the structure as drawn. The source made the active and inactive calls. The rule behind the calls is not given here.

Key:
Type in all cases: functional
[1] = system: SF-268; experiment: Cytotoxicity against human SF268 cells
[2] = system: NCI-H460; experiment: Cytotoxicity against human H460 cells
[3] = system: MCF7; experiment: Cytotoxicity against human MCF7 cells

In the case of `CC(C)=CCC1=C(O)C(CC=C(C)C)(CC=C(C)C)c2cc3c(CC=C(C)C)c(C)cc(O)c3c(O)c2C1=O` [FERRUGININ C], the GI50 [1] is reported as 4 µg/mL (≈ 7.57 µM), the GI50 [2] is reported as 5.4 µg/mL (≈ 10.2 µM) and the GI50 [3] is reported as 4.8 µg/mL (≈ 9.08 µM).
`CC(C)=CCC1(CC=C(C)C)C(O)=CC(=O)c2c1cc1cc(C)cc(O)c1c2O` [VISMIN] gave a GI50 [1] of 5.7 µg/mL (≈ 14.5 µM), a GI50 [2] of 7.3 µg/mL (≈ 18.6 µM) and a GI50 [3] of 5.2 µg/mL (≈ 13.2 µM).
With `COc1cc2cc3c(c(O)c2c(O)c1/C=C/C(C)C)C(=O)CC(C)(O)C3` (stereo not given) [DEACETYLVISMIONE A] the GI50 [1] was 2.2 µg/mL (≈ 6.17 µM), the GI50 [2] was 1.9 µg/mL (≈ 5.33 µM) and the GI50 [3] was 1.8 µg/mL (≈ 5.05 µM).
For `CC(C)=CCC1=C(O)C(CC=C(C)C)(CC=C(C)C)c2cc3cc(C)cc(O)c3c(O)c2C1=O` [FERRUGININ B], the GI50 [1] was 4 µg/mL (≈ 8.68 µM), the GI50 [2] was 5 µg/mL (≈ 10.9 µM) and the GI50 [3] was 5 µg/mL (≈ 10.9 µM).
`COc1cc2c(c(O)c1/C=C/C(C)C)C(=O)c1c(O)cc(C)cc1C2=O` was tested, and the Activity [1] was “inactive”, the Activity [2] was “inactive” and the Activity [3] was “inactive”.
With `COc1cc2cc3c(c(O)c2c2c1C=CC(C)(C)O2)C(=O)CC(C)(O)C3` (stereo not given) [VISMIONE B] the GI50 [1] was 2.5 µg/mL (≈ 7.05 µM), the GI50 [2] was 2.8 µg/mL (≈ 7.9 µM) and the GI50 [3] was 1.6 µg/mL (≈ 4.51 µM).
Work on `CC(C)=CCc1c(C)cc2cc3c(c(O)c2c1O)C(=O)C=C(O)C3(CC=C(C)C)CC=C(C)C` [FERRUGININ A] yielded a GI50 [1] of 4.9 µg/mL (≈ 10.6 µM), a GI50 [2] of 3.3 µg/mL (≈ 7.16 µM) and a GI50 [3] of 5 µg/mL (≈ 10.9 µM).
`CC(C)=CCOc1cc(O)c2c(O)c3c(cc2c1)CC(C)(O)CC3=O` (stereo not given) [DEACETYLVISMIONE H] was tested, and the GI50 [1] was 0.6 µg/mL (≈ 1.75 µM), the GI50 [2] was 0.6 µg/mL (≈ 1.75 µM) and the GI50 [3] was 0.4 µg/mL (≈ 1.17 µM).
With `COc1cc2c(c(O)c1/C=C/C(C)C)C(=O)c1c(O)cc(C)cc1C2C1c2cc(C)cc(O)c2C(=O)c2c1cc(OC)c(/C=C/C(C)C)c2O` (stereo not given) the Activity [1] was “inactive”, the Activity [2] was “inactive” and the Activity [3] was “inactive”.
`CC(C)=CCc1c(C)cc(O)c2c(O)c3c(cc12)C(CC=C(C)C)(CC=C(C)C)C(O)=CC3=O` [HARUNGANIN] showed a GI50 [1] of 6 µg/mL (≈ 13 µM), a GI50 [2] of 6.4 µg/mL (≈ 13.9 µM) and a GI50 [3] of 6 µg/mL (≈ 13 µM).
